The text below walks through data of US8697629B2, “Modulation of intracellular signaling” (Angstrom Pharmaceuticals, Inc., priority 2010, dated 2014).

The target in assay [1] is T1, CD44 (Homo sapiens, UniProt P16070).
T1 construct: endogenous in cells; host or cells: SKOV3 cells
The assay can be described thus: Immunoprecipitation of Å6Cbiotin-crosslinked SKOV3 polypeptides, HRP-SA blotting. Conditions: SKOV3 cells, 100 μM Å6Cbiotin, BS3 crosslinking, DF1485 anti-CD44. Format: binding. On the procedure:
In FIGS. 1 and 2 SKOV3 cells were incubated with or without 100 μM Å6Cbiotin (Å6CbioXL and ConXL, respectively) for 30 min at 4° C. The cells were then crosslinked with 5 mM bis(sulfosuccinimidyl) suberate (Sulfo-DSS or BS^3) for 30 min at 4° C. and Triton X-100 lysates generated. The lysates were pre-cleared by incubating with Protein A-agarose for 2 hr at room temperature. Aliquots representing 100 μg of the cleared lysates were then incubated overnight at room temperature with 20 μL of Protein A-agarose plus 2 μg of anti-Tenascin R (TnR; E-18, Santa Cruz Biotech.), anti-Tenascin C (TnC; 300-3, Santa Cruz Biotech.), anti-CD44 (DF1485, Santa Cruz Biotech.), anti-Plexin-A1 (Pl A1; H-60, Santa Cruz Biotech.) or murine IgG1 (Sigma Chem. Co.). After washing 5 times with lysis buffer, the immunoprecipitated polypeptides were eluted from the Protein A-agarose by boiling in SDS-PAGE sample buffer. The eluted material and 2 μg aliquots of the starting material were then subjected to SDS-PAGE, transfer to PVDF membranes and blotting with chemiluminescent horseradish peroxidase (HRP)-conjugated streptavidin (HRP-SA).
In FIG. 3 SKOV3 cells were incubated with or without 100 μM Å6Cbiotin (Å6CbioXL and control, respectively) for 30 minutes at 4° C. The cells were then crosslinked with 5 mM BS3 for 30 min at 4° C. […]

Assay [2] deals with PKCalpha. The assay can be described thus: PKCalpha phosphorylation in SKOV3 cells, immunoblot. Format: cell-based. The protocol:
(§1) Cells were detached from their culture vessels by brief trypsinization, suspended in complete media and centrifuged at 250×g for 10 min at room temperature. The cell pellets were suspended in Dulbeco's phosphate buffered saline (DPBS) and re-centrifuged for a total of three washes. The cells were then re-suspended at 3.33E5/ml in 24 ml of either RPMI containing 0.5% BSA (Sigma Chem. Co. #A0336) (RPMI/BSA) or the conditioned media of growing NIH3T3 fibroblasts (10% FBS in DMEM) supplemented with 10 ng/ml vascular endothelial growth factor (VEGF) (CMN). The cells were then treated with or without 100 ug/ml soluble hyaluronic acid (HA; human umbilical, Calbiochem #385902) for 30 min at 37° C. under 5% CO2. Aliquots representing 2E6 cells were then plated into 10 cm culture dishes and A6 added to yield final concentrations of 0, 10, 100 and 1000 nM. The cells were cultured overnight (18 hr) at 37° C. under 5% CO2.
(§2) After 18 hr of treatment, the media were aspirated from the 10 cm dishes and saved. The plates were washed 3 times with 4 ml of ice-cold DPBS which were pooled with the reserved non-adherent cells. The non-adherent cells were centrifuged at 250×g for 10 min at 4° C., washed twice with cold DPBS, drained and lysed in 50 ul of cold RIPA buffer (ThermoScientific #89901) containing cocktails of broad spectrum phosphatase inhibitors (Calbiochem #524625; used at 2× final concentration) and protease inhibitors (Sigma #P8340) (RIPA/inh.). The 10 cm dishes were drained of remaining wash and the adherent cells lysed by scraping in 200 μL of cold RIPA/inh. For each test condition, the lysates of the non-adherent and adherent populations were combined, vortexed and then centrifuged at 14,000 rpm at 4° C. for 20 min. Aliquots of the cleared lysates were frozen at −80° C. immediately. A small aliquot was reserved for total protein analysis using a BCA Protein Assay Kit (Calbiochem #71285-3).
(§3) Samples representing 20 μg of total protein of each lysate were solubilized in the presence of 50 mM Tris pH 6.8, 10% glycerol, 2% SDS and 100 mM DTT for 5 min at 95° C. and then loaded onto 10-20% acrylamide gels (BioRad #345-0044, Tris-HCl, 1 mm, 26 well, 15 μL/well). Electrophoresis was performed using Laemli electrophoresis buffer (0.1% SDS, 25 mM Tris, 192 mM glycine) at 200 V, constant voltage, for one hour. Upon completion of electrophoresis, the proteins were transferred to Immun-Blot PVDF membranes (BioRad #162-0238) in ice-cold 20% methanol in 25 mM Tris, 192 mM glycine for 2 hr at 0.5 Amps, constant current/blotting apparatus. The membranes were then cut vertically between molecular weight markers and in half at the 64 kDa marker to generate pieces for screening of higher molecular weight proteins (e.g., FAK) and lower molecular weight proteins (e.g., MEK and GAPDH). […]

Assay [3] deals with FAK. The assay can be described thus: FAK phosphorylation in SKOV3 cells, immunoblot and densitometry. Format: cell-based. On the procedure: as §1, §2
as §3, with “apparatus.” for “apparatus. The membranes were then cut vertically between molecular weight markers and in half at the 64 kDa marker to generate pieces for screening of higher molecular weight proteins (e.g., FAK) and lower molecular weight proteins (e.g., MEK and GAPDH).”
The integrated densities (id) of the bands of interest were measured using Image J software (NIH). […]

Assay [4] concerns the target T1, CD44. As to the kind of experiment: IM7 binding to SKOV3 cells, FACs analysis. It is filed as cell-based. Conditions: IM7 1 μg/ml, 4° C. The protocol: In FIGS. 14a and 14b SKOV3 cells were incubated with the indicated concentrations of Å6 for 30 min at 4° C. IM7 (1 μg/ml) was then added and allowed to bind for 30 min at 4° C., after which the cells were washed and incubated with FITC-donkey anti-rat IgG for 30 min at 4° C. The cells were washed once and then subjected to FACs analysis.

Entries after “also recorded” stand apart in the source; their conditions may differ.

T1 sequence (P16070 21-742): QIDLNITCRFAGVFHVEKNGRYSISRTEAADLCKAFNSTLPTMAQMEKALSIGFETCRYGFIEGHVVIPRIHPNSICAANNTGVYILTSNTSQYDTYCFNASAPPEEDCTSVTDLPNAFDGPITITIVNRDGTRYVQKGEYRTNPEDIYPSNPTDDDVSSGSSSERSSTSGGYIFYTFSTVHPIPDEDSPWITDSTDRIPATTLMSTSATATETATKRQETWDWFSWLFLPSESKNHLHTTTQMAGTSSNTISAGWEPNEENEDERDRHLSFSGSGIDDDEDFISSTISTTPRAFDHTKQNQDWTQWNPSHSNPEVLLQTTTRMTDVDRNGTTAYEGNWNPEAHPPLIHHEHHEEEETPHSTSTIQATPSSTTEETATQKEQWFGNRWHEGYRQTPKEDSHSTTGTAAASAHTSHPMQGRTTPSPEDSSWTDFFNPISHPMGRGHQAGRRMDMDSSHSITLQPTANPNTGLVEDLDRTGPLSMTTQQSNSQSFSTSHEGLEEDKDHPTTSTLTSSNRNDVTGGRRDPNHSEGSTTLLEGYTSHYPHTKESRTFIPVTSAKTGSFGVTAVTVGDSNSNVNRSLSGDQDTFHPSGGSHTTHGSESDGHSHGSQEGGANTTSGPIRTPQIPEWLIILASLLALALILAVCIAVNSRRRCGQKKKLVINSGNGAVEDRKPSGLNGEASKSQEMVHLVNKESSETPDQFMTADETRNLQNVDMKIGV

On to “acetyl-Lys-Pro-Ser-Ser-Pro-Pro-Glu-Glu-NH2 (Ac-KPSSPPEE-NH2) [Å6]”, for which, in assay [1], the “target of the peptide identified by anti-CD44 immunoprecipitation” value is “targets CD44; also recorded: confirm CD44 as the target”. Besides, the “total PKCalpha” value in assay [2] (CM/V cultured samples) is given as “decreased”. Further, the values for the pPKCa/PKCa result in assay [2] (CM/V in the absence of HA) and in assay [2] (in the presence of HA) were “decreased” and “appears to have further enhanced”, respectively. Further, the FAK phosphorylation result in assay [3] (CM/V media) is “enhanced”. Moreover, the “FAK phosphorylation in the presence of HA” value in assay [3] (RPMI/BSA) is listed as “restored”. For the same substance, the pFAK/FAK ratios entry in assay [3] (SKOV3, all conditions, Y397, Y576/577, Y925) was “enhanced pFAK/FAK ratios in a dose-dependent manner”. Moreover, the “IM7 antibody binding to SKOV3 cells” value in assay [4] is “increase in antibody binding with increasing concentration”.
